Like-named read-outs stand apart in the source and are kept apart here.

We go through five compounds from US6322771A, “Induction of pharmacological stress with adenosine receptor agonists” (priority 1999, dated 2001).

For data set [1], the system named is patients. The settings on record: 3,911 patients; cited from earlier work.
In data set [2] the test system is patients. The settings on record: 3,715 patients; cited from earlier work.
In the next data set the test system is A1 adenosine receptors. The note with it: A1 versus A2A adenosine receptors; cited from earlier work.
The test system of the next data set is adult mongrel dogs. The settings on record: for LCX coronary flow: baseline 42 ml/min.
The test system of data set [3] is dog with critical LAD stenosis. As for the experimental part: Following a 15 minute baseline stabilization period, the LAD snare occluder was tightened to produce a critical LAD stenosis. A critical stenosis was defined as one that produced no change in resting coronary flow, however coronary flow reserve was completely abolished. […] Five minutes later, an in vivo image was acquired and the animal was then immediately killed to prevent ^99m Tc-N-NOET redistribution. The heart was removed and sliced into 4 rings from apex to base. The heart slices were placed on a cardboard sheet, covered with plastic wrap, and ex vivo imaging of the heart slices was performed directly on the collimator of a conventional planar gamma camera. Image background subtraction was performed on the in vivo image using standard nuclear medicine software developed for this purpose. Defect magnitude was expressed as an LAD/LCX count ratio between counts in LAD and LCX regions of interest drawn on the in vivo and ex vivo heart images.

For data set [4], the system named is patients. The settings on record: 9,256 patients; cited from earlier work.

For `OCCN(CCO)c1nc(N2CCCCC2)c2nc(N(CCO)CCO)nc(N3CCCCC3)c2n1` [dipyridamole], in the data set on patients [1], the “ST-segment changes on ECG” value is listed as 8% and the headaches is listed as 12%. In addition, in the data set on patients [2], the “fall of mean systolic blood pressure” value was 14 mm Hg and the “patients with a >20% drop in systolic blood pressure” value was 11%.
For the compound `Nc1nc(Cl)nc2c1ncn2[C@@H]1O[C@H](CO)[C@@H](O)[C@H]1O` [Cl-Ado, 2-chloroadenosine], in the data set on A1 adenosine receptors, the “receptor subtype preference as activator” value is recorded as “more potent activator of A1 adenosine receptors than of A2A adenosine receptors”.
Take `CCNC(=O)[C@H]1O[C@@H](n2cnc3c(N)nc(C#CCC4CCC(COC(C)=O)CC4)nc32)[C@H](O)[C@@H]1O` (stereo partly drawn) [JMR-193e, [4-(3-{9[(4S,5S,2R,3R)-5-(N-ethylcarbamoyl)-3,4-dihydroxyoxolan-2-yl]-6-aminopurin-2-yl}prop-2-ynyl)cyclohexyl]methyl acetate]: the LCX coronary flow in the data set on adult mongrel dogs (0.05 μg/kg/min x 10 min i.v. infusion) worked out at 66 mL/min; in the data set on adult mongrel dogs (0.1 μg/kg/min x 10 min i.v. infusion), 75 mL/min; in the data set on adult mongrel dogs (0.2 μg/kg/min x 10 min i.v. infusion) it was 124 mL/min; in the data set with adult mongrel dogs (0.3 μg/kg/min x 10 min i.v. infusion) it was 153 mL/min; in the data set with adult mongrel dogs (0.4 μg/kg/min x 10 min i.v. infusion) it was 140 mL/min. Also, the “time flow remained elevated more than 2x normal” value in the data set on adult mongrel dogs (bolus 0.3 μg/kg) fell in the range of 3 to 4 min. In addition, the “time of maximal LCX flow post-injection” value in the data set with adult mongrel dogs (bolus 0.3 μg/kg) stood at 2.3 min. Further, the LCX flow with adult mongrel dogs (bolus 0.3 μg/kg, from 41 ml/min) is 140 mL/min. Moreover, the “pharmacodynamic t1/2” value with adult mongrel dogs (return of hemodynamics to baseline after terminating the infusion) was 12 ± 2 min.
Turning to `CCNC(=O)[C@H]1O[C@@H](n2cnc3c(N)nc(C#CC[C@H]4CC[C@H](C(=O)OC)CC4)nc32)[C@H](O)[C@@H]1O` [DWH-146e], the “increase of coronary flow in the normal LCX coronary artery” value in data set [3] (0.3 μg/kg/min i.v. infusion) is given as about 5 fold. Also, the “in vivo and ex vivo 99mTc-N-NOET images” value in data set [3] (critical LAD stenosis) is “readily detectable large anteroseptal perfusion defects”. In data set [3] (dog, in vivo), the “change in mean arterial pressure” value is “no change”. Also, the “Heart Rate” value in data set [3] (peak, 0.3 μg/kg/min i.v. infusion, baseline 109, stenosis 123) came out at 143 BPM. Moreover, the dP/dt in data set [3] (peak, 0.3 μg/kg/min i.v. infusion, baseline 2906, stenosis 2713) is listed as 2606 mm Hg · sec-1. The “LCX coronary flow” value in data set [3] (peak, 0.3 μg/kg/min i.v. infusion, normal artery, baseline 39, stenosis 38) worked out at 185 mL/min. In addition, the “LAD Coronary Flow” value in data set [3] (peak, 0.3 μg/kg/min i.v. infusion, stenosed artery, baseline 39, stenosis 37) amounted to 42 mL/min.
Take `Nc1ncnc2c1ncn2[C@@H]1O[C@H](CO)[C@@H](O)[C@H]1O` [adenosine]: in the data set on patients [4], the A-V conduction block is 8%, the ECG changes is listed as 9%, the chest pain is recorded as 35% and the flushing is on record as 37%. Moreover, in the data set on patients [4], the headache is on record as 14%, the “patients with adverse side effects” value is given as 82% and the “shortness of breath or dyspnea” value was 35%. The LCX flow in the data set on adult mongrel dogs (i.v. 250 μg/kg/min x 3 min) was 139 mL/min. In addition, the arterial pressure in the data set with adult mongrel dogs (i.v. 250 μg/kg/min x 3 min, from 109 mm Hg) is reported as 80 mm Hg.
